Patent US4970226A, “Bis-indole imidazole compounds which are useful antitumor and antimicrobial agents” (Harbor Branch Oceanographic Institution, Inc., priority 1989, dated 1990)
Values after ≈ are worked out from the molar mass of the structure shown.

Assays:
[1] = tested on: P388 murine leukemia cells; experiment: P388 in vitro antitumor screen (inhibition of P388 cell proliferation, MTT assay); type: cell-based; conditions: Mus musculus; for IC50: P388 cells, 48-hour incubation, MTT assay
Protocol: P388 murine leukemia cells, obtained from the National Cancer Institute, Bethesda, MD, were maintained at 37° C. in 5% CO2 in humidified air. Growth medium was Roswell Park Memorial Institute medium 1640 supplemented with 10% heat-inactivated horse serum. Stock cultures of P388 cells were grown in antibiotic-free growth medium and were subcultured (10^5 cells/ml, 25 ml cultures in T-25 plastic tissue culture flasks) every 2-3 days. […] An appropriate volume of the dilution was transferred to duplicate wells in a 96-well plate, evaporated to dryness, and 200 μl of growth medium-containing cells at a density of 1×10^5 cells/ml were added per well (final concentration of extract was 20 μg/ml). […] For daily quality control, each technician determines the IC50 of fluorouracil for inhibition of P388 cell proliferation. After 48-hour incubations, cell number was determined with the MTT assay (below), calculated as a percent of untreated cell growth, converted to percent inhibition, and reported to the chemist requesting the screen.
The initial determination of an IC50 value for inhibition of P388 cell proliferation with a crude, semipure, or pure sample was made by diluting the sample in methanol to the appropriate concentration, and then serial 1:1 dilutions were made in duplicate in a 96-well plate, such that the final concentrations in the assay were 20, 10, 5, 1.25, and 0.625 μg/ml. After solvent was evaporated to dryness, cells were added to each well as described above. After 48-hour incubations, cell numbers were determined with the MTT assay, converted to percent control, and plotted versus the log of the sample concentration. Curves were fitted by least-squares linear regression of logit-transformed data and the concentration of sample that inhibited cell proliferation by 50% was reported to the chemist requesting the screen. If the IC50 value was less than 0.625 μg/ml, additional serial dilutions were made and tested for activity.
MTT or 3-(4,5-dimethylthiazol-2-yl)-2,5-diphenyl-tetrazolium bromide is used in an established method (J. Immunol. Methods [1983] 65:55-63) to enumerate cells rather than "Coulter counting." For screening purposes, the correlation between percent inhibition determined for actual crude extracts with the Coulter counter and MTT method was very good (r=0.953, n=102 separate determinations of activity at 20 μg/ml), and no extract that was positive as determined by actual cell counts was lost using the MTT assay.

[2] = tested on: Bacillus subtilis; experiment: Antimicrobial disc diffusion assay, Bacillus subtilis; type: cell-based, Bacillus subtilis (ATCC strain 6633); conditions: 20 μg/disc, 6.35 mm paper discs, overnight at 37° C., read-out: Antimicrobial Bacillus subtilis zone (diameter of the zone of growth inhibition)
Protocol: (§1) Unless otherwise noted, all media were autoclaved at 121° C. for 15 minutes.
Standard spore stocks (ATCC strain 6633 were purchased from Difco (#0453-36-0).
B. subtilis was inoculated into Penassay medium (1 mL of stock per 200 mL agar), melted, and cooled to 45° C. Plates were poured as described above.
Paper discs (6.35 mm) were impregnated with the test substance and allowed to dry. They were then placed onto the surface of a test plate prepared as detailed above. Plates were incubated overnight at 37° C., after which time the zones of growh inhibition could be read. These were expressed as the diameter of the zone in millimeters. Standard drugs were used in all cases.

[3] = tested on: Candida albicans; experiment: Antimicrobial MIC protocol, Candida albicans; type: cell-based, Candida albicans (ATCC strain 44506); conditions: lowest concentration which completely inhibited growth, 1000 cells/mL, 37° C. overnight
Protocol: as §1
Candida albicans: C. albicans (ATCC strain 44506 was grown on Sabouraud dextrose agar to produce single colonies, one of which was used to inoculate Sabouraud dextrose broth. The broth was incubated at 37° C. with shaking at 200 rpm for 18 hours. The resultant culture was brought to 10% (v/v) glycerol, frozen at -80° C., and used as the inoculum for the anti-Candida assay.
Two-fold dilutions of the test compound were prepared in 50 μL volumes of a suitable solvent using 96-well microtiter plates. In a separate 96-well plate, 35 μL volumes of either Sabouraud dextrose broth or RPMI-1640 were placed in each well. The test compound (5 μL) was then transferred to the broth. An inoculum of C. albicans in the appropriate medium was added to give a cell density of 1000 cells/mL and a total volume of 50 μL. Plates were incubated at 37° C. overnight.

Brc1ccc2c(-c3c[nH]c(-c4c[nH]c5ccccc45)n3)c[nH]c2c1 [Nortopsentin C] was tested, and the IC50 [1] was 1.7 µg/mL (≈ 4.51 µM), the zone of inhibition at 20 µg/disc [2] was 9 mm and the MIC [3] was 12.5 µg/mL (≈ 33.1 µM).
Cn1c(-c2cn(C)c3ccccc23)c[n+](C)c1-c1cn(C)c2cc(Br)ccc12 [Tetramethylnortopsentin B] was tested, and the IC50 [1] was 0.34 µg/mL, the zone of inhibition at 20 µg/disc [2] was 12 mm and the MIC [3] was over 50 µg/mL.
With Brc1ccc2c(-c3nc(-c4c[nH]c5ccccc45)c[nH]3)c[nH]c2c1 [Nortopsentin B] the IC50 [1] was 7.8 µg/mL (≈ 20.7 µM), the zone of inhibition at 20 µg/disc [2] was 9 mm and the MIC [3] was 6.2 µg/mL (≈ 16.4 µM).
In the case of Brc1ccc2c(-c3c[nH]c(-c4c[nH]c5cc(Br)ccc45)n3)c[nH]c2c1 [Nortopsentin A], the IC50 [1] is reported as 7.6 µg/mL (≈ 16.7 µM), the zone of inhibition at 20 µg/disc [2] is reported as 8 mm and the MIC [3] is reported as 3.1 µg/mL (≈ 6.8 µM).
Work on O=c1[nH]cc(F)c(=O)[nH]1 [fluorouracil, reference compound] yielded an inhibition at 0.2 µg/mL ([1]; P388, 48 h, read-out: inhibition of cell replication (positive control)) of about 95%.
